The values that follow come from patent publication US4992450A, “Piperidine opioid antagonists” (Eli Lilly and Company, priority 1989, dated 1991).

For assay [1], the target named is T1, mu receptor (Mus musculus, UniProt P42866).
T1 construct: Five CF-1 male mice (Charles River, Portage, Mich.); from tissue; host or cells: whole living CF-1 male mice (in vivo)
The experiment in a line: Mouse writhing assay, antagonism of morphine analgesia (mu). The assay is classed as in vivo, CF-1 male mice. The settings on record: sc, read-out: Mu AD50.

Assay [2] has as its target T2, kappa receptor (Mus musculus, UniProt P33534).
T2 construct: Five CF-1 male mice (Charles River, Portage, Mich.); from tissue; host or cells: whole living CF-1 male mice (in vivo)
Nature of the assay: in vivo. Further details: species or system CF-1 male mice. The settings on record: sc, read-out: Kappa AD50.

The target of assay [3] is T3, kappa receptors (Rattus norvegicus, UniProt P34975).
T3 construct: sixty male Long-Evans hooded rats; from tissue; host or cells: whole living male Long-Evans hooded rats (in vivo)
T3 sequence (P34975 whole entry): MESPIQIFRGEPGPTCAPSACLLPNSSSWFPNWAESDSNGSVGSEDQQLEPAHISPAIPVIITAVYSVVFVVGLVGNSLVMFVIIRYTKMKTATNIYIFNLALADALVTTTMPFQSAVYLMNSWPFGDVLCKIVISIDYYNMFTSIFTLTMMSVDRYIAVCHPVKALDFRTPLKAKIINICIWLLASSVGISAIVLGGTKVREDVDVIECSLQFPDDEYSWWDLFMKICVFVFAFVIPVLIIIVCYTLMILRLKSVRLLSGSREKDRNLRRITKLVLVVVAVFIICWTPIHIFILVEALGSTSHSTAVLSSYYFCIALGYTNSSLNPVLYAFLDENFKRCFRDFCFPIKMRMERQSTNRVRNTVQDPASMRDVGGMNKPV
Nature of the assay: Rat diuresis assay, antagonism of bremazocine-induced urination. The class given is in vivo, male Long-Evans hooded rats. The conditions noted are these: sc, rats, s.c., urinary output reduced to 50% of effect of 0.08 mg/kg bremazocine alone. On the procedure: As such, the compounds of the invention were also evaluated in a rat diuresis assay conducted according to the following procedure described by Leander et al. in Drug Development Research 4:421-427 (1984) in an effort to further establish the ability of the present compounds to block kappa receptors.
According to this procedure, sixty male Long-Evans hooded rats (Charles River Breeding Laboratories, Portage, Mich.) weighing between about 300 and 500 grams each were housed either individually or in pairs in a temperature-controlled (23° C.) colony room which was illuminated between 6:00 A.M. and 6:00 P.M. Rodent chow and tap water were continuously available except during the measurement of urine output. The animals were used repeatedly, but no more frequently than twice a week.
The animals were then injected with various doses of the test compounds. To measure urine output, the animals were removed from the home cages, weighed, injected and placed in metabolism cages for 5 hr. Excreted urine was funneled into graduated cylinders. Cumulative urine volumes were determined at designated time intervals, usually at 2 and 5 hr after injection.
The compounds which are salt forms were dissolved in distilled water. If necessary, the compounds were dissolved in distilled water with the aid of either a few drops of lactic acid or hydrochloric acid and gentle warming. All injections were s.c. in a volume of 1 ml/kg of body weight. During tests for antagonism, two injections were given, one on each side of the body.
In the Table, column 1 provides the Example Number of the compound tested; column 2, the amount of compound in mg/kg necessary to reduce the urinary output to 50% of the effect produced by 0.08 mg/kg of bremazocine alone two hours after injection of bremazocine and the test compound; and column 3, the amount of compound in mg/kg necessary to reduce the urinary output to 50% of the effect produced by 0.08 mg/kg of bremazocine alone five hours after injection of bremazocine and the test compound.

Assay [4] deals with meal fed obese Zucker rats. Nature of the assay: Food consumption assay in meal fed obese Zucker rats. The class given is in vivo. The settings on record: Rattus norvegicus, sc, 4 h, amount to decrease food consumption 20% during first four hours. The source says:
The following assay was employed to evaluate the ability of the compounds of the invention to effect food and water consumption of meal fed obese Zucker rats.
According to this procedure, 3-4 month old obese Zucker rats were trained to eat food daily from 8:00 A.M. to 4:00 P.M. only, such that the body weight gain approximates that if the rats were fed ad libitum. These rats were allowed to consume water at all times. Four groups of rats with four rats in each group, two female and two male, were formed. One group served as control for the other three groups each day. Each of the other groups were given a subcutaneous dose of the compound to be evaluated. The test compound was formulated in physiological saline containing 10% dimethylsulfoxide by volume.
Animals remained drug free for 4 days before the next test. Food and water consumption of each rat were measured for the first four hours. A test on one compound was run for three consecutive days. The drug effect was expressed as the percent of the control for that test day.
In the Table, column 1 gives the Example Number of the compound evaluated; and column 2 provides the ED20 in mg/kg, wherein ED20 represents the amount of compound evaluated in mg/kg necessary to decrease food consumption 20% during the first four hours of the experiment.

[5] abbreviates: 2 h, two hours after injection, read-out: AD50 Two Hours.
[6] abbreviates: 5 h, five hours after injection, read-out: AD50 Five Hours.

Where a name gives a salt, the structure may show the parent alone. Read-outs that look alike come from different tables or passages of the source.

T2 sequence (P33534 whole entry): as the sequence (P34975 whole entry) above, with E11D, A17S, P51S, V308A counted along it
T1 sequence (P42866 whole entry): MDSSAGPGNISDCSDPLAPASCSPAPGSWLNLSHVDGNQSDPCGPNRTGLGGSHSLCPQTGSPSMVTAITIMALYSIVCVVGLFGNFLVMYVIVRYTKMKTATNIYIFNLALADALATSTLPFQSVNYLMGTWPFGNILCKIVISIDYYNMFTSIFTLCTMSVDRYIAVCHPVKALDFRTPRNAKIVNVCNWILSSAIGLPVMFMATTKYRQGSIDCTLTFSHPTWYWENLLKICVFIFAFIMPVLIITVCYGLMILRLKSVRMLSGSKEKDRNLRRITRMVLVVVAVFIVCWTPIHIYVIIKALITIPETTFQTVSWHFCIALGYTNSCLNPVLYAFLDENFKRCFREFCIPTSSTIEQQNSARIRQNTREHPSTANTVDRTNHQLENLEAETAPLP

On to `CC1CN(CCC(=O)C2CCCCC2)CCC1(C)c1cccc(O)c1` (stereo not drawn) [Example 33, trans-(±)-1-(3-Oxo-3-cyclohexylpropyl)-3,4-dimethyl-4-(3-hydroxyphenyl)piperidine hydrochloride], for which the figures for the ED50 in assay [1] and in assay [2] were 0.12 mg/kg and 0.26 mg/kg, respectively.

Regarding `CC1CN(CCC(C)(C)C)CCC1(C)c1cccc(O)c1` (stereo not drawn) [Example 12, trans-(±)-1-(3,3-Dimethylbutyl)-3,4-dimethyl-4-(3-hydroxyphenyl)piperidine hydrochloride], the ED50 in assay [1] came to 0.56 mg/kg; in assay [2], 0.42 mg/kg; in assay [3] (setting [5]), 7.89 mg/kg; in assay [3] (setting [6]) it was 8.13 mg/kg.

As to `C[C@H]1CN(CCC(=O)c2ccccc2)CC[C@@]1(C)c1cccc(O)c1` (relative stereo) [Compound C, 3-[4β-(3-Hydroxyphenyl)-3β,4α-dimethylpiperidino]propiophenone maleate, reference compound], the figures for the ED50 in assay [1] and in assay [2] were 0.14 mg/kg and 4.5 mg/kg, respectively. The same compound showed an ED20 in assay [4] of 3.72 mg/kg.

For the compound `C=CCN1CC[C@]23c4c5ccc(O)c4O[C@H]2C(=O)CC[C@@]3(O)[C@H]1C5` [Compound E, naloxone, reference compound], the ED20 in assay [4] was 1.4 mg/kg.

As to `C[C@H]1CN(CCC(O)C2CCCC2)CC[C@@]1(C)c1cccc(O)c1` (relative stereo) [Example 18, trans-(±)-1-[R,S-(1-Cyclopentylpropanol-3-yl)]-3,4-dimethyl-4-(3-hydroxyphenyl)piperidine hydrochloride], the ED50 in assay [1] was 0.04 mg/kg; in assay [2] it was 0.08 mg/kg. This compound yielded an ED20 in assay [4] of 0.07 mg/kg.

For `CC(C)CCCCN1CC[C@](C)(c2cccc(O)c2)[C@H](C)C1` (stereo in doubt) [Example 29, trans-(-)-1-(5-Methylhexyl)-3,4-dimethyl-4-(3-hydroxyphenyl)piperidine hydrochloride], the ED50 worked out at 0.35 mg/kg in assay [1] and 0.89 mg/kg in assay [2]. Besides, the ED20 in assay [4] was 0.31 mg/kg.

With `CC(C)CCCCN1CC[C@@](C)(c2cccc(O)c2)[C@@H](C)C1` (stereo in doubt) [Example 28, trans-(+)-1-(5-Methylhexyl)-3,4-dimethyl-4-(3-hydroxyphenyl)piperidine hydrochloride], the results for the ED50 in assay [1] and in assay [2] were 0.08 mg/kg and 0.22 mg/kg, respectively. For the same compound, in assay [4], the ED20 stood at 0.12 mg/kg.

With `CCCC(O)CCN1CC[C@@](C)(c2cccc(O)c2)[C@@H](C)C1` (relative stereo) [Example 30, trans-(±)-1-[R,S-(3-Hydroxyhexyl)]-3,4-dimethyl-4-(3-hydroxyphenyl)piperidine hydrochloride], the values for the ED50 in assay [1] and in assay [2] were 0.11 mg/kg and 0.47 mg/kg, respectively.

As for `CC1CN(CC2CCCC2)CCC1(C)c1cccc(O)c1` (stereo not drawn) [Example 5, trans-(±)-1-(Cyclopentylmethyl)-3,4-dimethyl-4-(3-hydroxyphenyl)piperidine hydrochloride], the ED50 is 1.01 mg/kg in assay [1], 0.54 mg/kg in assay [2], 1.91 mg/kg in assay [3] (setting [5]) and 0.92 mg/kg in assay [3] (setting [6]).

With `CCCCCC(=O)CCN1CCC(C)(c2cccc(O)c2)C(C)C1` (stereo not drawn) [Example 32, trans-(±)-1-(3-Oxo-n-octyl)-3,4-dimethyl-4-(3-hydroxyphenyl)piperidine hydrochloride], the ED50 in assay [1] was found to be 0.17 mg/kg; in assay [2], 3.5 mg/kg.

With `CC1CN(CCc2cccs2)CCC1(C)c1cccc(O)c1` (stereo not drawn) [Example 38, trans-(±)-1-[2-(2-Thienyl)ethyl]-3,4-dimethyl-4-(3-hydroxyphenyl)piperidine hydrochloride], the results for the ED50 in assay [1], in assay [2] and in assay [3] (setting [6]) were 0.25 mg/kg, 0.25 mg/kg and 2 mg/kg, respectively.

As for `O=C1CC[C@@]2(O)[C@H]3Cc4ccc(O)c5c4[C@@]2(CCN3CC2CC2)[C@H]1O5` [Compound F, naltrexone, reference compound], in assay [4], the ED20 turned out to be 2.05 mg/kg.
